Assay results taken from patent US20080057010A1, “METHOD FOR SKIN CARE” (NULIV SCIENCE LTD., priority 2006, published 2008).

Legend:
[1] = tested on: hyaluronic acid (HA); assay: HA measurement in culture medium of HaCaT cells (HA-ELISA); format: cell-based, human; conditions: relative to 0 = 1.00
Method: HA measurement was carried out as described (BBRC, 2004, 316: 348-355). Briefly, HaCaT or HDF cells were seeded and incubated in 24-well plates to confluency. Immediately before experiments, cells were washed twice with serum-free medium to completely remove HA accumulated during cell growth. The cells were then cultured with or without different compounds in 0.5 ml serum-free medium for 48 h. At the indicated time, aliquots of medium were removed, centrifuged at 15000 g for 5 min, and supernatants were analyzed for HA using an enzyme-linked immunosorbent assay (ELISA) kit (Echelon Bioscience, Salt Lake, Utah).
Results shown represent the fold of induction of the astragalosides on hyaluronic acid expression in HaCaT cells. The concentrations of astragalosides used were 0, 1, or 10 μM (unless indicated otherwise) for astragaloside pure compounds; were 0, 0.5, 1, 2.5, 5, 10, 40 μg/mL for the butanol fraction (unless indicated otherwise); and were 0, 1, 10, 40 μg/mL for the water insoluble fraction (unless indicated otherwise). The cells were treated with the indicated compounds for 24 h before harvested for analysis of secreted hyaluronic acid in culture medium using HA-ELISA kit.

[2] = tested on: collagen I; assay: Collagen I expression in human HaCaT cells (western blot); format: cell-based; conditions: relative to 0 μM = 1.00
Method: The Spontaneously transformed human keratinocyte cell lines HaCaT cells were grown at 37° C. in a humidified incubator under 5% CO2 and 95% air in culture medium such as Dulbecco Modified Eagle Medium (DMEM) supplemented with 10% Fetal Bovine Serum (FBS), 100 IU/mL penicillin, 100 μg/mL of streptomycin, 2 mM sodium pyruvate and 1% Non-Essential Amino Acids (NEAA). The culture medium was replaced every other day. After confluence, the cells were subcultured following trypsinization. For subcultures cells were harvested after brief treatment with 0.1% trypsin/ethylenediaminetetraacetic acid (EDTA) solution and seeded at a dilution of 1:10. Cells between passages 12 and 45 were used for studies. The cells were seeded and incubated for 24 h before treated with the astragalosides for 24 h. Control cultures were maintained in medium supplemented with vehicle (dimethyl sulfoxide (DMSO) 0.1%). No growth and differentiation effects of DMSO were observed under these culture conditions.
(§1) The cells were treated with pure compounds such as astragaloside I (AS 1), astragaloside II (AS2), astragaloside III (AS3), astragaloside IV (AS4), astragaloside VI (AS6), isoastragaloside I (isoAS1), isoastragaloside II (isoAS2), and cycloastragenol 6-O-β-D-glucopyranose (AA) at concentrations of 0-10 μM. Alternatively, the cells were also treated with the crude extracts, such as butanol fraction and water insoluble fraction of Astragalus membranaceus at concentrations of 0, 1, 10, and 40 μg/mL. The cells were treated with the indicated compounds or the extracts for 24 h before harvested for analysis of collagen I and III expressed in the whole cell extract or secreted into the culture medium.
(§2) Western blot analysis was carried out on both of cultured medium and cell lysates. The cells were plated on 6-cm dishes at a density of 1×10^6 cells/dish for 24 h prior to treatment with indicated concentrations of astragalus triterpenoids as indicated for another 48 h. The conditioned culture mediums were then centrifuged, 2-fold concentrated and collected for assay of collagens and MMPs secreted into the culture medium. The cells were washed and lysed in 0.2 mL of lysis buffer (1% NP-40, 50 mM Tris-HCl, pH 7.4, 180 mM NaCl, 1 mM EDTA, 1 mM PMSF, 1 mM NaF, 10 mM Na3VO4) for 30 min at 4° C. After centrifuging at 17500 g for 15 min, the supernatants of cell lysate were also collected. Protein concentration of the samples were measured using the bicinchoninic acid (BCA) protein assay kit according to the manufacturer's protocol (Pierce, Rockford, Ill., USA). Equal amount of protein samples of concentrated conditioned medium (100 μg) or cell lysate supernatants (50 μg) were mixed with an appropriate volume of 4×SDS sampling buffer and separated by 8% SDS-PAGE gel. The protein bands separated in the SDS-PAGE gel were blotted onto a polyvinylidene fluoride (PVDF) membrane. The blotted PVDF membrane was washed twice and blocked in freshly prepared Tris-buffered saline (TBS) containing 0.1% Tween-20 and 7% skim milk (TBST) for 2 h at room temperature. The PVDF membrane was then incubated with either antibodies against collagen I and III or the housekeeping protein α-tubulin (Santa Cruz Biotechnology, Santa Cruz, Calif.) for 18 h at 4° C. Horseradish peroxidase-conjugated anti-goat antibody was used as secondary antibody. Signals were visualized by an enhanced chemiluminescence kit (Clonetech, Palo Alto, Calif., USA) followed by exposure to X-ray films.
Results shown represent the quantitated data from western blot analysis. […] The collagen I was also over-expressed in the human HaCaT cells treated with 40 μg/mL of astragaloside extract.

[3] = tested on: collagen III; assay: Collagen III expression and secretion in human HDF cells (western blot); format: cell-based; conditions: relative to 0 = 1.00
Method: Primary human dermal fibroblasts cells (HDF) were purchased from Cascade Biologics (Portland, Oreg., USA) and cultured in medium 106 supplemented with 10% fetal bovine serum (FBS), 100 IU/mL penicillin, 100 μg/mL of streptomycin. The cells from passages 4 to 10 were used for this study. Culture medium was replaced every other day. After confluence, the cells were subcultured following trypsinization. For subcultures cells were harvested after brief treatment with 0.1% trypsin/EDTA solution and seeded at a dilution of 1:10. The cells were seeded at 1×10^5 cells in 6-well culture plate for 24 h before treated with astragalosides or crude extracts, such as butanol fraction and water insoluble fraction of Astragalus membranaceus for the indicated time periods. Control cultures were maintained in medium supplemented with vehicle (dimethyl sulfoxide, DMSO, 0.1%). No growth and differentiation effects of DMSO were observed under these culture conditions.
as §1, §2

CC(C)(O)[C@@H]1CC[C@](C)([C@H]2[C@@H](O)C[C@@]3(C)[C@@H]4C[C@H](O[C@@H]5O[C@H](CO)[C@@H](O)[C@H](O)[C@H]5O)[C@H]5C(C)(C)[C@@H](O[C@@H]6OC[C@@H](O)[C@H](O)[C@H]6O)CC[C@@]56C[C@@]46CC[C@]23C)O1 [AS4, astragaloside IV]
HA in medium (fold of induction) ([1]; 1 μM): 2.27
HA in medium (fold of induction) ([1]; 10 μM): 1.31

CC(=O)O[C@H]1[C@H](O[C@H]2CC[C@]34C[C@]35CC[C@]3(C)[C@@H]([C@@]6(C)CC[C@@H](C(C)(C)O)O6)[C@@H](O)C[C@@]3(C)[C@@H]5C[C@H](O[C@@H]3O[C@H](CO)[C@@H](O)[C@H](O)[C@H]3O)[C@H]4C2(C)C)OC[C@@H](OC(C)=O)[C@@H]1O [isoAS1, isoastragaloside I]
Collagen I in cell ([2]; 0.01 μM): 1.13
Collagen I in cell ([2]; 0.1 μM): 1.06
Collagen I in cell ([2]; 1 μM): 1.19

astragaloside I [AS1]
Collagen III in cell ([3]; 0.01 μM): 1.16
Collagen III in medium ([3]; 0.01 μM): 1.38
Collagen III in cell ([3]; 0.1 μM): 1.08
Collagen III in medium ([3]; 0.1 μM): 1.19
Collagen III in cell ([3]; 1 μM): 1.18
Collagen III in medium ([3]; 1 μM): 1.77
Collagen I in cell ([2]; 0.01 μM): 1.13
Collagen I in cell ([2]; 0.1 μM): 0.72
Collagen I in cell ([2]; 1 μM): 1.22
HA in medium (fold of induction) ([1]; 1 μM): 1.45
HA in medium (fold of induction) ([1]; 10 μM): 1.36

CC(=O)O[C@@H]1[C@@H](O)[C@H](O[C@H]2CC[C@]34C[C@]35CC[C@]3(C)[C@@H]([C@@]6(C)CC[C@@H](C(C)(C)O)O6)[C@@H](O)C[C@@]3(C)[C@@H]5C[C@H](O[C@@H]3O[C@H](CO)[C@@H](O)[C@H](O)[C@H]3O)[C@H]4C2(C)C)OC[C@H]1O [isoAS2, isoastragaloside II]
Collagen III in medium ([3]; 0.01 μM): 1.00
Collagen III in medium ([3]; 0.1 μM): 1.07
Collagen III in medium ([3]; 1 μM): 1.18
Collagen I in cell ([2]; 0.01 μM): 1.52
Collagen I in cell ([2]; 0.1 μM): 0.94
Collagen I in cell ([2]; 1 μM): 1.41

CC(=O)O[C@H]1[C@H](O[C@H]2CC[C@]34C[C@]35CC[C@]3(C)[C@@H]([C@@]6(C)CC[C@@H](C(C)(C)O)O6)[C@@H](O)C[C@@]3(C)[C@@H]5C[C@H](O[C@@H]3O[C@H](CO)[C@@H](O)[C@H](O)[C@H]3O)[C@H]4C2(C)C)OC[C@@H](O)[C@@H]1O [AS2, astragaloside II]
Collagen III in medium ([3]; 0.01 μM): 1.26
Collagen III in medium ([3]; 0.1 μM): 1.74
Collagen III in medium ([3]; 1 μM): 0.94
Collagen I in cell ([2]; 0.01 μM): 0.86
Collagen I in cell ([2]; 0.1 μM): 1.14
Collagen I in cell ([2]; 1 μM): 1.87
HA in medium (fold of induction) ([1]; 1 μM): 1.98
HA in medium (fold of induction) ([1]; 10 μM): 1.31

CC(C)(O)[C@@H]1CC[C@](C)([C@H]2[C@@H](O)C[C@@]3(C)[C@@H]4C[C@H](O[C@@H]5O[C@H](CO)[C@@H](O)[C@H](O)[C@H]5O)[C@H]5C(C)(C)[C@@H](O[C@@H]6OC[C@@H](O)[C@H](O)[C@H]6O[C@@H]6O[C@H](CO)[C@@H](O)[C@H](O)[C@H]6O)CC[C@@]56C[C@@]46CC[C@]23C)O1 [AS6, astragaloside VI]
Collagen III in cell ([3]; 0.01 μM): 1.65
Collagen III in cell ([3]; 0.1 μM): 1.37
Collagen III in cell ([3]; 1 μM): 0.95
HA in medium (fold of induction) ([1]; 1 μM): 1.13
HA in medium (fold of induction) ([1]; 10 μM): 1.38

CC(C)(O)[C@@H]1CC[C@](C)([C@H]2[C@@H](O)C[C@@]3(C)[C@@H]4C[C@H](O)[C@H]5C(C)(C)[C@@H](O[C@@H]6OC[C@@H](O)[C@H](O)[C@H]6O[C@@H]6O[C@H](CO)[C@@H](O)[C@H](O)[C@H]6O)CC[C@@]56C[C@@]46CC[C@]23C)O1 [AS3, astragaloside III]
Collagen III in medium ([3]; 0.01 μM): 2.18
Collagen III in medium ([3]; 0.1 μM): 1.79
Collagen III in medium ([3]; 1 μM): 1.51
